Where “and” joins values, the source holds several entries; their conditions need not be identical. Equal values may be shown once.
Test: excess molar enthalpy (molar enthalpy of mixing); xn = mol fraction of the nth substance listed
Conditions: Liquid

O=C=O [carbon dioxide] + O
Conditions	excess molar enthalpy
323.1 K, 2060 kPa, x1 = 0.0032	-0.0113 kcal/mol
323.1 K, 2060 kPa, x1 = 0.0037	-0.0131 kcal/mol
323.1 K, 2060 kPa, x1 = 0.004	-0.0138 kcal/mol
323.1 K, 2060 kPa, x1 = 0.0042	-0.0152 kcal/mol
323.1 K, 2060 kPa, x1 = 0.0048	-0.0168 kcal/mol
323.1 K, 2060 kPa, x1 = 0.0058	-0.0199 kcal/mol
323.1 K, 2060 kPa, x1 = 0.006	-0.022 kcal/mol
323.1 K, 2060 kPa, x1 = 0.0064	-0.0216 kcal/mol
323.1 K, 2060 kPa, x1 = 0.0079	-0.0221 kcal/mol and -0.0222 kcal/mol
323.1 K, 2060 kPa, x1 = 0.0106	-0.0228 kcal/mol
323.1 K, 2060 kPa, x1 = 0.0126	-0.0224 kcal/mol
323.1 K, 2060 kPa, x1 = 0.0158	-0.0228 kcal/mol
323.1 K, 2060 kPa, x1 = 0.021	-0.0223 kcal/mol
323.1 K, 2060 kPa, x1 = 0.0311	-0.0225 kcal/mol
323.1 K, 5100 kPa, x1 = 0.0052	-0.0162 kcal/mol
323.1 K, 5100 kPa, x1 = 0.0064	-0.02 kcal/mol
323.1 K, 5100 kPa, x1 = 0.0084	-0.0261 kcal/mol
323.1 K, 5100 kPa, x1 = 0.0092	-0.029 kcal/mol
323.1 K, 5100 kPa, x1 = 0.0101	-0.0323 kcal/mol
323.1 K, 5100 kPa, x1 = 0.0105	-0.0331 kcal/mol
323.1 K, 5100 kPa, x1 = 0.011	-0.0344 kcal/mol
323.1 K, 5100 kPa, x1 = 0.012	-0.0373 kcal/mol
323.1 K, 5100 kPa, x1 = 0.0125	-0.0394 kcal/mol
323.1 K, 5100 kPa, x1 = 0.0136	-0.0412 kcal/mol
323.1 K, 5100 kPa, x1 = 0.0138	-0.0417 kcal/mol
323.1 K, 5100 kPa, x1 = 0.0147	-0.0429 kcal/mol
323.1 K, 5100 kPa, x1 = 0.0151	-0.0441 kcal/mol
323.1 K, 5100 kPa, x1 = 0.0155	-0.0438 kcal/mol
323.1 K, 5100 kPa, x1 = 0.0156	-0.0448 kcal/mol
323.1 K, 5100 kPa, x1 = 0.0172	-0.0438 kcal/mol
323.1 K, 5100 kPa, x1 = 0.0181	-0.0441 kcal/mol
323.1 K, 5100 kPa, x1 = 0.019	-0.0454 kcal/mol
323.1 K, 5100 kPa, x1 = 0.0201	-0.0438 kcal/mol
323.1 K, 5100 kPa, x1 = 0.0208	-0.0453 kcal/mol
323.1 K, 5100 kPa, x1 = 0.0254	-0.0443 kcal/mol
323.1 K, 10530 kPa, x1 = 0.01	-0.0178 kcal/mol
323.1 K, 10530 kPa, x1 = 0.012	-0.0208 kcal/mol
323.1 K, 10530 kPa, x1 = 0.0132	-0.0243 kcal/mol
323.1 K, 10530 kPa, x1 = 0.0165	-0.0301 kcal/mol
323.1 K, 10530 kPa, x1 = 0.0197	-0.0321 kcal/mol
323.1 K, 10530 kPa, x1 = 0.023	-0.0348 kcal/mol
323.1 K, 10530 kPa, x1 = 0.0249	-0.0347 kcal/mol
323.1 K, 10530 kPa, x1 = 0.026	-0.037 kcal/mol
323.1 K, 10530 kPa, x1 = 0.0323	-0.0368 kcal/mol
323.1 K, 10530 kPa, x1 = 0.0324	-0.0368 kcal/mol
323.1 K, 10530 kPa, x1 = 0.0446	-0.0361 kcal/mol
323.1 K, 10530 kPa, x1 = 0.0508	-0.0359 kcal/mol
323.1 K, 10530 kPa, x1 = 0.0625	-0.0354 kcal/mol
323.1 K, 10530 kPa, x1 = 0.0627	-0.0356 kcal/mol
323.1 K, 14200 kPa, x1 = 0.0105	-0.0142 kcal/mol
323.1 K, 14200 kPa, x1 = 0.0125	-0.0168 kcal/mol
323.1 K, 14200 kPa, x1 = 0.0139	-0.0189 kcal/mol
323.1 K, 14200 kPa, x1 = 0.0173	-0.0225 kcal/mol
323.1 K, 14200 kPa, x1 = 0.0207	-0.025 kcal/mol
323.1 K, 14200 kPa, x1 = 0.0241	-0.0268 kcal/mol
323.1 K, 14200 kPa, x1 = 0.0248	-0.027 kcal/mol
323.1 K, 14200 kPa, x1 = 0.0261	-0.0277 kcal/mol
323.1 K, 14200 kPa, x1 = 0.0274	-0.0279 kcal/mol
323.1 K, 14200 kPa, x1 = 0.0287	-0.0288 kcal/mol
323.1 K, 14200 kPa, x1 = 0.0307	-0.029 kcal/mol
323.1 K, 14200 kPa, x1 = 0.034	-0.0284 kcal/mol
323.1 K, 14200 kPa, x1 = 0.047	-0.0283 kcal/mol
323.1 K, 14200 kPa, x1 = 0.0658	-0.0279 kcal/mol
323.1 K, 20200 kPa, x1 = 0.011	-0.0128 kcal/mol
323.1 K, 20200 kPa, x1 = 0.0147	-0.0167 kcal/mol
323.1 K, 20200 kPa, x1 = 0.0183	-0.0207 kcal/mol
323.1 K, 20200 kPa, x1 = 0.0197	-0.0216 kcal/mol
323.1 K, 20200 kPa, x1 = 0.021	-0.0236 kcal/mol
323.1 K, 20200 kPa, x1 = 0.0239	-0.0236 kcal/mol
323.1 K, 20200 kPa, x1 = 0.0253	-0.0238 kcal/mol
323.1 K, 20200 kPa, x1 = 0.0274	-0.0246 kcal/mol
323.1 K, 20200 kPa, x1 = 0.0288	-0.0248 kcal/mol
323.1 K, 20200 kPa, x1 = 0.0359	-0.0249 kcal/mol
323.1 K, 20200 kPa, x1 = 0.0427	-0.0252 kcal/mol
323.1 K, 20200 kPa, x1 = 0.0461	-0.0249 kcal/mol
323.1 K, 20200 kPa, x1 = 0.0494	-0.0251 kcal/mol
323.1 K, 20200 kPa, x1 = 0.0692	-0.0247 kcal/mol
373.1 K, 5050 kPa, x1 = 0.002	-0.00308 kcal/mol
373.1 K, 5050 kPa, x1 = 0.0025	-0.00418 kcal/mol
373.1 K, 5050 kPa, x1 = 0.003	-0.00476 kcal/mol
373.1 K, 5050 kPa, x1 = 0.004	-0.00614 kcal/mol
373.1 K, 5050 kPa, x1 = 0.0045	-0.00686 kcal/mol
373.1 K, 5050 kPa, x1 = 0.005	-0.00767 kcal/mol
373.1 K, 5050 kPa, x1 = 0.006	-0.00901 kcal/mol
373.1 K, 5050 kPa, x1 = 0.007	-0.01 kcal/mol
373.1 K, 5050 kPa, x1 = 0.0075	-0.0109 kcal/mol
373.1 K, 5050 kPa, x1 = 0.008	-0.0112 kcal/mol
373.1 K, 5050 kPa, x1 = 0.009	-0.0112 kcal/mol
373.1 K, 5050 kPa, x1 = 0.01	-0.0113 kcal/mol and -0.011 kcal/mol
373.1 K, 5050 kPa, x1 = 0.011	-0.0113 kcal/mol
373.1 K, 5050 kPa, x1 = 0.0125	-0.0109 kcal/mol
373.1 K, 5050 kPa, x1 = 0.014	-0.011 kcal/mol
373.1 K, 5050 kPa, x1 = 0.0149	-0.0103 kcal/mol
373.1 K, 5050 kPa, x1 = 0.0154	-0.0106 kcal/mol
373.1 K, 5050 kPa, x1 = 0.0174	-0.00997 kcal/mol
373.1 K, 5050 kPa, x1 = 0.0179	-0.0097 kcal/mol
373.1 K, 5050 kPa, x1 = 0.0198	-0.00939 kcal/mol
373.1 K, 10080 kPa, x1 = 0.0068	-0.00801 kcal/mol
373.1 K, 10080 kPa, x1 = 0.0081	-0.0088 kcal/mol
373.1 K, 10080 kPa, x1 = 0.0094	-0.0104 kcal/mol
373.1 K, 10080 kPa, x1 = 0.0101	-0.0114 kcal/mol
373.1 K, 10080 kPa, x1 = 0.0108	-0.0122 kcal/mol
373.1 K, 10080 kPa, x1 = 0.0134	-0.0147 kcal/mol
373.1 K, 10080 kPa, x1 = 0.0135	-0.0145 kcal/mol
373.1 K, 10080 kPa, x1 = 0.02	-0.0151 kcal/mol
373.1 K, 10080 kPa, x1 = 0.0201	-0.0148 kcal/mol
373.1 K, 10080 kPa, x1 = 0.0228	-0.0142 kcal/mol
373.1 K, 10080 kPa, x1 = 0.0263	-0.0141 kcal/mol
373.1 K, 10080 kPa, x1 = 0.0265	-0.0145 kcal/mol
373.1 K, 10080 kPa, x1 = 0.0294	-0.0134 kcal/mol
373.1 K, 10080 kPa, x1 = 0.039	-0.0134 kcal/mol
373.1 K, 10080 kPa, x1 = 0.0516	-0.0122 kcal/mol
373.1 K, 19500 kPa, x1 = 0.0037	-0.0016 kcal/mol
373.1 K, 19500 kPa, x1 = 0.0044	-0.00182 kcal/mol
373.1 K, 19500 kPa, x1 = 0.0051	-0.00198 kcal/mol
373.1 K, 19500 kPa, x1 = 0.0059	-0.00225 kcal/mol
373.1 K, 19500 kPa, x1 = 0.0066	-0.00251 kcal/mol
373.1 K, 19500 kPa, x1 = 0.0081	-0.00294 kcal/mol
373.1 K, 19500 kPa, x1 = 0.0087	-0.00335 kcal/mol
373.1 K, 19500 kPa, x1 = 0.0088	-0.00327 kcal/mol
373.1 K, 19500 kPa, x1 = 0.0095	-0.00337 kcal/mol
373.1 K, 19500 kPa, x1 = 0.011	-0.00411 kcal/mol
373.1 K, 19500 kPa, x1 = 0.0123	-0.00454 kcal/mol
373.1 K, 19500 kPa, x1 = 0.0145	-0.00464 kcal/mol
373.1 K, 19500 kPa, x1 = 0.0146	-0.00492 kcal/mol
373.1 K, 19500 kPa, x1 = 0.0159	-0.00504 kcal/mol
373.1 K, 19500 kPa, x1 = 0.0167	-0.00492 kcal/mol
373.1 K, 19500 kPa, x1 = 0.0181	-0.00554 kcal/mol
373.1 K, 19500 kPa, x1 = 0.0182	-0.00535 kcal/mol
373.1 K, 19500 kPa, x1 = 0.0195	-0.00564 kcal/mol
373.1 K, 19500 kPa, x1 = 0.0217	-0.0054 kcal/mol
373.1 K, 19500 kPa, x1 = 0.0218	-0.0054 kcal/mol
373.1 K, 19500 kPa, x1 = 0.0251	-0.00531 kcal/mol
373.1 K, 19500 kPa, x1 = 0.0253	-0.00538 kcal/mol
373.1 K, 19500 kPa, x1 = 0.0265	-0.00526 kcal/mol
373.1 K, 19500 kPa, x1 = 0.03	-0.00488 kcal/mol
373.1 K, 19500 kPa, x1 = 0.0521	-0.00258 kcal/mol
373.1 K, 19500 kPa, x1 = 0.0603	-0.00186 kcal/mol
373.1 K, 19500 kPa, x1 = 0.0688	-0.00086 kcal/mol
373.1 K, 19500 kPa, x1 = 0.0691	-0.00129 kcal/mol
373.1 K, 19500 kPa, x1 = 0.0771	-0.000478 kcal/mol
